This is an account of results in US12643903B2, “Bifunctional compounds for degradation of EGFR and related methods of use” (BeiGene, Ltd., priority 2020, dated 2026).

Holding throughout (assay type): cell-based
Common to all, as to conditions: 16 h treatment, EGFR degradation by HTRF
(In TR-FRET formats the signal depends on donor and acceptor labels being close together.)

For assay [1], the target named is T1, EGFR (Homo sapiens, UniProt P00533, L858R/T790M).
T1 construct: endogenous in cells; host or cells: H1975
T1 sequence (P00533 25-1210 T790M/L858R): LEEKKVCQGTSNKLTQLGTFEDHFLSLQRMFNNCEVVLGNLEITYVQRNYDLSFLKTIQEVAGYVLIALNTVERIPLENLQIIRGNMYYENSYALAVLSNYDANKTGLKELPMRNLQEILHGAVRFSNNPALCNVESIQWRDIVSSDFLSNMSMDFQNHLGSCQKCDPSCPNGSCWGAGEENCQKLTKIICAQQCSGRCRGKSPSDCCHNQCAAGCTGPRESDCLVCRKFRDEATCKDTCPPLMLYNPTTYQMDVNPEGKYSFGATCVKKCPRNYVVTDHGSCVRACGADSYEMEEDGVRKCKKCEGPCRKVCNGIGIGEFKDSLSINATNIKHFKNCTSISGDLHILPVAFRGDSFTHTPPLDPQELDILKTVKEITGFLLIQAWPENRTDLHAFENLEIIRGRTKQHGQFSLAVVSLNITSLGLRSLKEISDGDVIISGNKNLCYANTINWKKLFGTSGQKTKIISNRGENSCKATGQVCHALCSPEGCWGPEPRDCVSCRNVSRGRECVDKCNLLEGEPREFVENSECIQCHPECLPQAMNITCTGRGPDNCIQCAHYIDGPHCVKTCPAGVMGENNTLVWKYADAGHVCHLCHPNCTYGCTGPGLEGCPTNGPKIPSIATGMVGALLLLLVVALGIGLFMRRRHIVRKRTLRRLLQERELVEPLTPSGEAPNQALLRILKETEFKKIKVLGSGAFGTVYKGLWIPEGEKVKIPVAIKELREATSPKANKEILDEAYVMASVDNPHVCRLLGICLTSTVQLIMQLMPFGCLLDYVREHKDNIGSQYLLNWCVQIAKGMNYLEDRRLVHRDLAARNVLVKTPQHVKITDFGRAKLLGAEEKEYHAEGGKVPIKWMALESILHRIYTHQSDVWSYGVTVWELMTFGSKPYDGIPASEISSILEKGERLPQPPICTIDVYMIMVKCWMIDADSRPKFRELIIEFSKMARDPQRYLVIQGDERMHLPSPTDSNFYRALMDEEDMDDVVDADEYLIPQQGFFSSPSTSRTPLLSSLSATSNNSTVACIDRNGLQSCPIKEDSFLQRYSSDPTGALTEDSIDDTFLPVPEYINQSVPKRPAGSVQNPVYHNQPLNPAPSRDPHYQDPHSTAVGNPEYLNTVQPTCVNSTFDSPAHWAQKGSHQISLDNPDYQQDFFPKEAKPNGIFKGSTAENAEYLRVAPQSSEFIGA
The assay can be described thus: Cell Degradation 1: EGFR degradation in H1975 cells, HTRF assay. In a few lines:
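H1975 cells treated with compound for 16 h, lysed 1 h at room temperature. EGFR measured by HTRF after overnight antibody incubation (665/620 nm). DC50 from four-parameter logistic fit of percent inhibition against concentration.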

Assay [2] addresses T2, EGFR (Homo sapiens, UniProt P00533, DEL746-750).
T2 construct: endogenous in cells; host or cells: HCC827
Put plainly: Cell Degradation 2: EGFR degradation in HCC827 cells, HTRF assay. In a few lines: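 Compound-treated HCC827 cells were lysed after 16 h and EGFR measured by HTRF (337 nm excitation, 665/620 nm emission) after overnight antibody incubation at room temperature. DC50 came from a four-parameter fit of percent inhibition against compound concentration.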

The subject of a further assay is EGFR DTC. The assay can be described thus: Cell Degradation 3: EGFR degradation in BaF3 cells (DTC), HTRF assay. In a few lines: (§1)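 BaF3 cells expressing EGFR (LTC triple mutant C797S/L858R/T790M or DTC) exposed to compounds for 16 h, 8 doses from 4-fold dilution, 0.2% DMSO. Residual EGFR quantified by HTRF in lysates (triple mutant lysate diluted 1:1); DC50 from four-parameter logistic fit.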

The target in a further assay is T3, EGFR LTC (Homo sapiens, UniProt P00533, C797S/L858R/T790M).
T3 construct: expressed in transfected cells; host or cells: BaF3
T3 sequence (P00533 25-1210 T790M/C797S/L858R): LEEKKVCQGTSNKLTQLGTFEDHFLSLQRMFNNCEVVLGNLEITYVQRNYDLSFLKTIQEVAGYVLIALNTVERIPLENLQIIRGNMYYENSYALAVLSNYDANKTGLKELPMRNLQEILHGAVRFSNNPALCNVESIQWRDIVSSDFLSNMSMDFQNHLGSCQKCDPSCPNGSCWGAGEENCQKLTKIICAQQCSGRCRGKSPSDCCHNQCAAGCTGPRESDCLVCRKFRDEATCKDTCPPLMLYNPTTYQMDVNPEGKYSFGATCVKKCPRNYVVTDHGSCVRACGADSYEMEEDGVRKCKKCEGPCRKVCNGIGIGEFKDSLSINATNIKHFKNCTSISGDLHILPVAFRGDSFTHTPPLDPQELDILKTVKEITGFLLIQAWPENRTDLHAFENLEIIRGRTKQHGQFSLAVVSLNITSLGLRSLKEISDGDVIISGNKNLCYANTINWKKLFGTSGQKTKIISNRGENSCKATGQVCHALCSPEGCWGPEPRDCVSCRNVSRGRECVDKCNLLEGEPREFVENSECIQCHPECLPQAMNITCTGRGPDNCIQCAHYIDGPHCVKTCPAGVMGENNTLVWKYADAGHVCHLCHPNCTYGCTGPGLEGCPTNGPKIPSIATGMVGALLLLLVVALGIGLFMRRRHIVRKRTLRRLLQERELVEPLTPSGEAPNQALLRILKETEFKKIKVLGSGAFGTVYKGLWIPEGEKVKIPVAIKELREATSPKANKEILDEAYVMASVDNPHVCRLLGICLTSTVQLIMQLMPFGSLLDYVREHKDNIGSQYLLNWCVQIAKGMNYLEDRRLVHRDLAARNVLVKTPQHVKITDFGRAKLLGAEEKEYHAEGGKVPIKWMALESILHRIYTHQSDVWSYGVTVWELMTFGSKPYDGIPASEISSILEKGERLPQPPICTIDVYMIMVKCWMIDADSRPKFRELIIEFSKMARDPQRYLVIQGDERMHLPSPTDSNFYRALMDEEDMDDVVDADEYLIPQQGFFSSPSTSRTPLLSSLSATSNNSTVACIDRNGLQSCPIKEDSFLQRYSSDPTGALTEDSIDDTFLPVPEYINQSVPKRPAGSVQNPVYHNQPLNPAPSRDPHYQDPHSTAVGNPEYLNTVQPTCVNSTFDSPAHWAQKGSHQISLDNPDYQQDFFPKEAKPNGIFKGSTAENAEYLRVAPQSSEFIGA
Put plainly: Cell Degradation 3: EGFR degradation in BaF3 cells (LTC), HTRF assay. In a few lines: as §1

Structures are written as SMILES.

For orientation: DC50 means the concentration at which degradation of the target reaches its halfway point. Read a low DC50 as degradation at low concentration.

T2 sequence (P00533 with tags, fused parts or gaps DEL746-750): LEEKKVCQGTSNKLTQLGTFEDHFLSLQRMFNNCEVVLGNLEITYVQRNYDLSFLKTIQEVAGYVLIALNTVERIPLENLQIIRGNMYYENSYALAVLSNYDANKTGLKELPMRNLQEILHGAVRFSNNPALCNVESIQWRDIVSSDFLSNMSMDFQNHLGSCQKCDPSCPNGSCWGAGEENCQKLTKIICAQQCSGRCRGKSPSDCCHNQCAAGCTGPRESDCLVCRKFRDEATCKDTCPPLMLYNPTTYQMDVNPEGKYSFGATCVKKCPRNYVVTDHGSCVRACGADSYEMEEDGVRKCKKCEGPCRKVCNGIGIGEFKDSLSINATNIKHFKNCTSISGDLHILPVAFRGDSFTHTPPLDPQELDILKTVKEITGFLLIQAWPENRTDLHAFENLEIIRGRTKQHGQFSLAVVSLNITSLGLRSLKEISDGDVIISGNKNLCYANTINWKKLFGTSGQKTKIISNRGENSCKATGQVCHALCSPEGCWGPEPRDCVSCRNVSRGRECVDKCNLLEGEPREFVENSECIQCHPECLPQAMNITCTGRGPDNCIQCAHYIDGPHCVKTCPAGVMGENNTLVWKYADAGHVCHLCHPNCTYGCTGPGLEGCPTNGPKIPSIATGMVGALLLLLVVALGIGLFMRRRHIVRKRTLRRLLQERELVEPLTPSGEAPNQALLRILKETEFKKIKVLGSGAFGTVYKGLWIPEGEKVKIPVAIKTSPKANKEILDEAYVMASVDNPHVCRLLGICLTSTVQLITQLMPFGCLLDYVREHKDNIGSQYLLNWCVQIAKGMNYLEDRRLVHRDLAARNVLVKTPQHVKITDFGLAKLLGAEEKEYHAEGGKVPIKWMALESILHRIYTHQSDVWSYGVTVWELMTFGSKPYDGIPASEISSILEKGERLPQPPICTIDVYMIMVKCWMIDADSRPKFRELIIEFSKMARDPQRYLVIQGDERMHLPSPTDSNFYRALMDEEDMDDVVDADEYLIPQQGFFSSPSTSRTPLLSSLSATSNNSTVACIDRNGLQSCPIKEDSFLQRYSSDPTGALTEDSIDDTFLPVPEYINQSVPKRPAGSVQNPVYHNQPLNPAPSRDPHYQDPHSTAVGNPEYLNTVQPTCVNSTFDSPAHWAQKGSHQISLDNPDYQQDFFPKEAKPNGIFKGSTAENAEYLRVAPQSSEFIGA
T2 sequence (Q96SW2 whole entry partner): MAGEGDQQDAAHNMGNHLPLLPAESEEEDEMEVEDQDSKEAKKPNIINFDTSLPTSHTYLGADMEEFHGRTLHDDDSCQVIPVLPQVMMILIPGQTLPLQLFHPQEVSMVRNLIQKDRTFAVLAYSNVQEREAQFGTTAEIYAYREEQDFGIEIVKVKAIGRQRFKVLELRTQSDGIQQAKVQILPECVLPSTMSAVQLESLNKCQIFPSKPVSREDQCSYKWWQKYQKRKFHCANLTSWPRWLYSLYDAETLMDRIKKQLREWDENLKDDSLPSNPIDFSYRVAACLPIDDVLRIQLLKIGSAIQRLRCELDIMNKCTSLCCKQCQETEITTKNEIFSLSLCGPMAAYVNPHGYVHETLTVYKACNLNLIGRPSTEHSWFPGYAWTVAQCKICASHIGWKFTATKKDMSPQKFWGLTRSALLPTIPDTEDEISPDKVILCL

As for `COc1cc(N2CCC(N3CCN(CCC4CCN(c5ccc6c(c5)C(=O)N(C5CCC(=O)NC5=O)C6=O)CC4)CC3)CC2)ccc1Nc1ncc(Cl)c(Nc2cccc3c2N(S(C)(=O)=O)CC3)n1` (centres unmarked) [Example 37, 5-(4-(2-(4-(1-(4-((5-chloro-4-((1-(methylsulfonyl)indolin-7-yl)amino)pyrimidin-2-yl)amino)-3-methoxyphenyl)piperidin-4-yl)piperazin-1-yl)ethyl)piperidin-1-yl)-2-(2,6-dioxopiperidin-3-yl)isoindoline-1,3-dione], the DC50 on EGFR [1] was 3.8 nM; on EGFR [2], 3.5 nM; in the assay on EGFR DTC it was 16.7 nM; at EGFR LTC, 43.1 nM.

Regarding `COc1cc(N2CCC(N3CCN(CCC4CCN(c5ccc(C6CCC(=O)NC6=O)c(F)c5)CC4)CC3)CC2)ccc1Nc1ncc(Cl)c(Nc2cccc3c2N(S(C)(=O)=O)CC3)n1` (centres unmarked) [Example 36, 3-(4-(4-(2-(4-(1-(4-((5-chloro-4-((1-(methylsulfonyl)indolin-7-yl)amino)pyrimidin-2-yl)amino)-3-methoxyphenyl)piperidin-4-yl)piperazin-1-yl)ethyl)piperidin-1-yl)-2-fluorophenyl)piperidine-2,6-dione], the DC50 worked out at 15.5 nM at EGFR [1], 8.6 nM on EGFR [2], 26.3 nM in the assay on EGFR DTC and 42.6 nM on EGFR LTC.

Regarding `COc1cc(N2CCC(N3CCN(C[C@@H]4CCN(c5ccc6c(c5)CN(C5CCC(=O)NC5=O)C6=O)C4)CC3)CC2)c(C)cc1Nc1ncc(Br)c(Nc2cccc3c2N(S(C)(=O)=O)CC3)n1` (stereo partly drawn) [Example 154, 3-(5-((S)-3-((4-(1-(4-((5-bromo-4-((1-(methylsulfonyl)indolin-7-yl)amino)pyrimidin-2-yl)amino)-5-methoxy-2-methylphenyl)piperidin-4-yl)piperazin-1-yl)methyl)pyrrolidin-1-yl)-1-oxoisoindolin-2-yl)piperidine-2,6-dione], the DC50 amounted to 16 nM at EGFR [1], 6 nM at EGFR [2], 11 nM in the assay with EGFR DTC and 13 nM on EGFR LTC.

`COc1cc(N2CCC(N3CCN(CCC4CCN(c5ccc6c(c5)C(=O)N(C5CCC(=O)NC5=O)C6=O)CC4)CC3)CC2)c(C)cc1Nc1ncc(Br)c(Nc2cccc3c2N(S(C)(=O)=O)CC3)n1` (centres unmarked) [Example 91, 5-(4-(2-(4-(1-(4-((5-bromo-4-((1-(methylsulfonyl)indolin-7-yl)amino)pyrimidin-2-yl)amino)-5-methoxy-2-methylphenyl)piperidin-4-yl)piperazin-1-yl)ethyl)piperidin-1-yl)-2-(2,6-dioxopiperidin-3-yl)isoindoline-1,3-dione]: the DC50 on EGFR [1] is 3.5 nM; on EGFR [2], 6.4 nM; with EGFR DTC it was 14.9 nM; at EGFR LTC, 39.9 nM.

For `CS(=O)(=O)N1CCc2cccc(Nc3nc(Nc4ccc(N5CCC(N6CCN(CC7CN(c8ccc9c(c8)C(=O)N(C8CCC(=O)NC8=O)C9=O)C7)CC6)CC5)c(F)c4)ncc3Cl)c21` (centres unmarked) [Example 76, 5-(3-((4-(1-(4-((5-chloro-4-((1-(methylsulfonyl)indolin-7-yl)amino)pyrimidin-2-yl)amino)-2-fluorophenyl)piperidin-4-yl)piperazin-1-yl)methyl)azetidin-1-yl)-2-(2,6-dioxopiperidin-3-yl)isoindoline-1,3-dione], the DC50 amounted to 3.4 nM on EGFR [1], 3.3 nM on EGFR [2], 4.8 nM in the assay with EGFR DTC and 8 nM at EGFR LTC.

In the case of `CS(=O)(=O)N1CCc2cccc(Nc3nc(Nc4ccc(N5CCC(N6CCN(CCC7CCN(c8ccc(C9CCC(=O)NC9=O)c(F)c8)CC7)CC6)CC5)c(F)c4)ncc3Cl)c21` (centres unmarked) [Example 80, 3-(4-(4-(2-(4-(1-(4-((5-chloro-4-((1-(methylsulfonyl)indolin-7-yl)amino)pyrimidin-2-yl)amino)-2-fluorophenyl)piperidin-4-yl)piperazin-1-yl)ethyl)piperidin-1-yl)-2-fluorophenyl)piperidine-2,6-dione], the DC50 at EGFR [1] was 5.5 nM; at EGFR [2] it was 4.3 nM; with EGFR DTC it was 6.5 nM; on EGFR LTC, 12.2 nM.

As for `COc1cc(N2CCC(N3CCN(C[C@H]4CCN(c5ccc6c(c5)CN(C5CCC(=O)NC5=O)C6=O)C4)CC3)CC2)c(C)cc1Nc1ncc(Br)c(Nc2cccc3c2N(S(C)(=O)=O)CC3)n1` (stereo partly drawn) [Example 168, 3-(5-((R)-3-((4-(1-(4-((5-bromo-4-((1-(methylsulfonyl)indolin-7-yl)amino)pyrimidin-2-yl)amino)-5-methoxy-2-methylphenyl)piperidin-4-yl)piperazin-1-yl)methyl)pyrrolidin-1-yl)-1-oxoisoindolin-2-yl)piperidine-2,6-dione], the DC50 stood at 7 nM at EGFR [1], 2 nM on EGFR [2], 14 nM with EGFR DTC and 25 nM at EGFR LTC.

Turning to `COc1cc(N2CCC(N3CCN(C[C@H]4C[C@H](c5ccc6c(c5)CN(C5CCC(=O)NC5=O)C6=O)C4)CC3)CC2)c(C)cc1Nc1ncc(Br)c(Nc2cccc3c2N(S(C)(=O)=O)CC3)n1` (some centres unmarked) [Example 159, 3-(5-((1r,3r)-3-((4-(1-(4-((5-bromo-4-((1-(methylsulfonyl)indolin-7-yl)amino)pyrimidin-2-yl)amino)-5-methoxy-2-methylphenyl)piperidin-4-yl)piperazin-1-yl)methyl)cyclobutyl)-1-oxoisoindolin-2-yl)piperidine-2,6-dione], the DC50 on EGFR [1] is 3 nM; at EGFR [2] it was 2 nM; with EGFR DTC, 11 nM; on EGFR LTC, 19 nM.

`CS(=O)(=O)N1CCc2cccc(Nc3nc(Nc4ccc(N5CCC(N6CCN(CCc7ccc(C8CCC(=O)NC8=O)c(F)c7)CC6)CC5)c5c4OCC5)ncc3Cl)c21` (centres unmarked) [Example 53, 3-(4-(2-(4-(1-(7-((5-chloro-4-((1-(methylsulfonyl)indolin-7-yl)amino)pyrimidin-2-yl)amino)-2,3-dihydrobenzofuran-4-yl)piperidin-4-yl)piperazin-1-yl)ethyl)-2-fluorophenyl)piperidine-2,6-dione]: the DC50 on EGFR [1] came to 2.6 nM; at EGFR [2], 3.7 nM; with EGFR DTC it was 21.8 nM; at EGFR LTC, 35.7 nM.

As to `CS(=O)(=O)N1CCc2cccc(Nc3nc(Nc4ccc(N5CCC(N6CCN(C(=O)[C@H]7CCN(c8ccc9c(c8)C(=O)N(C8CCC(=O)NC8=O)C9=O)C7)CC6)CC5)c(F)c4)ncc3Cl)c21` (stereo partly drawn) [Example 82, 5-((S)-3-(4-(1-(4-((5-chloro-4-((1-(methylsulfonyl)indolin-7-yl)amino)pyrimidin-2-yl)amino)-2-fluorophenyl)piperidin-4-yl)piperazine-1-carbonyl)pyrrolidin-1-yl)-2-(2,6-dioxopiperidin-3-yl)isoindoline-1,3-dione], the DC50 on EGFR [1] was determined as 3.2 nM; on EGFR [2] it was 2.8 nM; in the assay on EGFR DTC, 3.5 nM; at EGFR LTC it was 15.1 nM.

As to `COc1cc(N2CCC(N3CCN(CC4CN(c5ccc6c(c5)CN(C5CCC(=O)NC5=O)C6=O)C4)CC3)CC2)ccc1Nc1ncc(Cl)c(Nc2cccc3c2N(S(C)(=O)=O)CC3)n1` (centres unmarked) [Example 85, 3-(5-(3-((4-(1-(4-((5-chloro-4-((1-(methylsulfonyl)indolin-7-yl)amino)pyrimidin-2-yl)amino)-3-methoxyphenyl)piperidin-4-yl)piperazin-1-yl)methyl)azetidin-1-yl)-1-oxoisoindolin-2-yl)piperidine-2,6-dione], the DC50 on EGFR [1] was found to be 3 nM; at EGFR [2] it was 2.9 nM; with EGFR DTC it was 1.8 nM; on EGFR LTC it was 2.8 nM.

In the case of `CS(=O)(=O)N1CCc2cccc(Nc3nc(Nc4ccc(N5CCC(N6CCN(C(=O)CCN7CCN(c8ccc9c(c8)C(=O)N(C8CCC(=O)NC8=O)C9=O)CC7)CC6)CC5)c(F)c4)nc4[nH]ccc34)c21` (centres unmarked) [Example 15, 2-(2,6-dioxopiperidin-3-yl)-5-(4-(3-(4-(1-(2-fluoro-4-((4-((1-(methylsulfonyl)indolin-7-yl)amino)-7H-pyrrolo[2,3-d]pyrimidin-2-yl)amino)phenyl)piperidin-4-yl)piperazin-1-yl)-3-oxopropyl)piperazin-1-yl)isoindoline-1,3-dione], the DC50 was 10 nM at EGFR [1], 9.2 nM at EGFR [2], 35.8 nM in the assay with EGFR DTC and 68.3 nM on EGFR LTC.

`CS(=O)(=O)N1CCc2cccc(Nc3nc(Nc4ccc(N5CCC(N6CCN(CCCC7CN(c8ccc9c(c8)C(=O)N(C8CCC(=O)NC8=O)C9=O)C7)CC6)CC5)c(F)c4)nc4[nH]ccc34)c21` (centres unmarked) [Example 19, 2-(2,6-dioxopiperidin-3-yl)-5-(3-(3-(4-(1-(2-fluoro-4-((4-((1-(methylsulfonyl)indolin-7-yl)amino)-7H-pyrrolo[2,3-d]pyrimidin-2-yl)amino)phenyl)piperidin-4-yl)piperazin-1-yl)propyl)azetidin-1-yl)isoindoline-1,3-dione]: the DC50 at EGFR [1] is 6.03 nM; at EGFR [2], 10.8 nM; in the assay with EGFR DTC, 16.7 nM; on EGFR LTC it was 24.2 nM.

`COc1cc(N2CCC(N3CCN(CCC4CCN(c5ccc(C6CCC(=O)NC6=O)cc5)CC4)CC3)CC2)ccc1Nc1ncc(Cl)c(Nc2cccc3c2N(S(C)(=O)=O)CC3)n1` (centres unmarked) [Example 35, 3-(4-(4-(2-(4-(1-(4-((5-chloro-4-((1-(methylsulfonyl)indolin-7-yl)amino)pyrimidin-2-yl)amino)-3-methoxyphenyl)piperidin-4-yl)piperazin-1-yl)ethyl)piperidin-1-yl)phenyl)piperidine-2,6-dione]: the DC50 on EGFR [1] came to 7.2 nM; on EGFR [2], 8.4 nM; with EGFR DTC, 48.1 nM; on EGFR LTC, 203 nM.
